In brackets after ≈: the same amount, converted by molar mass.
System: murine P388 lymphocytic leukemia (PS) cell line
Assay: murine P388 lymphocytic leukemia (PS system) cell line growth inhibition, standard National Cancer Institute protocol
Assay type: cell-based

SMILES | IC50 (Mus musculus, P388, murine P388 lymphocytic leukemia (PS system) cell line, read-out: PS cell line activity ED50) | PS cell line activity ED50 (murine P388 lymphocytic leukemia (PS system) cell line)
O=C1CCc2ccc(O)c(c2)Oc2ccc(cc2)[C@@H]2O[C@@H]2CO1 (relative stereo) [Combretastatin D-1] | 3.3 µg/mL (≈ 10.6 µM) | 
O=C1CCc2ccc(O)c(c2)Oc2ccc(cc2)/C=C\CO1 [Combretastatin D-2] |  | 5.2 µg/mL
